Tests used:
Assay type in all cases: cell-based, human
[1] = system: RPMI-8226 Multiple Myeloma cell line; assay: DIMSCAN cytotoxicity, fenretinide + L-threo-sphinganines 3:1 (Example B2); conditions: 96 h
Method: (§1) Cytotoxicity Assay—Once again, cytotoxicity is determined using the DIMSCAN assay system (R. Proffitt et al., Cytometry 24, 204-213 (1996); T. Frgala et al., Mol Cancer Ther. 6:886-97, 2007). The system employs digital imaging microscopy to quantify viable cells, which selectively accumulate fluorescein diacetate to become brightly fluorescent. The system is capable of measuring cytotoxicity over a 4-5 log dynamic range by quenching the residual fluorescence of dead and dying cells with eosin Y and quantifying the total fluorescence of viable cells using digital thresholding. Measured fluorescence is directly proportionate to the number of viable cells. A comparison of the total fluorescence of a drug-treated cell population to the fluorescence of a similar number of untreated cells yields a survival fraction. In brief, 2000 to 10,000 cells/well (depending on size and growth rates) are replicate plated into 60 wells of a 96-well tissue culture plate in 0.1 mL of whole medium and allowed to attach overnight. Drug(s) are then added in 0.05 mL of whole medium to the final concentrations indicated. Drugs (fenretinide, and various chain length L-threo-sphinganines) were tested both as single agents and in a 3:1 ratio of fenretinide:sphinganine. C18-L-threo-sphinganine, or “safingol,” was also tested and results shown for reference. There are 12 wells treated per drug concentration. Twelve wells receive drug vehicle-only to the appropriate final concentration and serve as controls for the plate. Cells are incubated for 96 hours at 37° C. in ambient air with 5% CO2. Fluorescein diacetate is then added to each well in 0.05 mL media to a final concentration of 8 microgram/mL. Cells are incubated for a further 15 minutes at 37° C. and 0.03 mL of 0.5% eosin Y is added to each well. Total fluorescence of viable cells is then measured by digital imaging microscopy. Results were graphed as the ratio of the fluoresecence of drug-treated wells to non-drug treated control wells (i.e., Survival Fraction). All tests were performed at least twice. Representative results are shown.
(§2) The Combination Index (CI) is a term to describe mathematical modeling of the pharmacologic effects on cytotoxicity (cell death) of two drugs in combination based. Cytotoxic “synergy” is defined as a cell death affect which is greater than would be expected from a simple product of the single agent cytotoxicities alone (i.e. an “additive” effect). By Chou-Talalay analysis, a CI<0.9 on a Fraction Affected (“Fa”, i.e. fraction of cells killed) indicates synergy, with smaller numbers indicating greater synergy; a CI of 0.9-1.1 signifies an additive or near-additive effect; and a CI>1.1 means the drug combination is antagonistic.
Fenretinide and L-threo-sphinganines tested in human Multiple Myeloma (a cancer of the blood and bone marrow) cell line, RPMI-8226.

[2] = system: PC-3 prostate adenocarcinoma cell line; assay: DIMSCAN cytotoxicity, fenretinide + L-threo-sphinganines 3:1 (Example B17)
Method: as §1, §2
Fenretinide and L-threo-sphinganines tested in human prostate adenocarcinoma (prostate cancer) cell line, PC-3.

[3] = system: SJ-G2 Glioblastoma cell line; assay: DIMSCAN cytotoxicity, fenretinide + L-threo-sphinganines 3:1 (Example B8); conditions: 96 h
Method: as §1, §2
Fenretinide and L-threo-sphinganines tested in human Glioblastoma (brain cancer) cell line, SJ-G2.

[4] = system: T98G Glioblastoma multiforme cell line; assay: DIMSCAN cytotoxicity, fenretinide + L-threo-sphinganines 3:1 (Example B6); conditions: 96 h
Method: as §1, §2
Fenretinide and L-threo-sphinganines tested in human Glioblastoma multiforme (brain cancer) cell line, T98G.

[5] = system: U-118 Glioblastoma cell line; assay: DIMSCAN cytotoxicity, fenretinide + L-threo-sphinganines 3:1 (Example B5); design: key to CI (Combination Index): CI<0.9 synergy, 0.9-1.1 additive, >1.1 antagonistic; conditions: U-118 MG, 96 h
Method: as §1, §2
Fenretinide and L-threo-sphinganines tested in human Glioblastoma (brain cancer) cell line, U-118.

[6] = system: A-2058 melanoma cell line; assay: DIMSCAN cytotoxicity, fenretinide + L-threo-sphinganines 3:1 (Example B11); conditions: 96 h
Method: as §1, §2
Fenretinide and L-threo-sphinganines tested in human melanoma (skin cancer) cell line, A-2058.

[7] = system: A-549 lung adenocarcinoma cell line; assay: DIMSCAN cytotoxicity, fenretinide + L-threo-sphinganines 3:1 (Example B13); conditions: 96 h
Method: as §1, §2
Fenretinide and L-threo-sphinganines tested in human lung adenocarcinoma (lung cancer) cell line, A-549.

[8] = system: HT-29 colorectal adenocarcinoma cell line; assay: DIMSCAN cytotoxicity, fenretinide + L-threo-sphinganines 3:1 (Example B10); conditions: 96 h
Method: as §1, §2
Fenretinide and L-threo-sphinganines tested in human colorectal adenocarcinoma (colon cancer) cell line, HT-29.

[9] = 4-HPR 1.5 μM + L-threo-sphinganine 0.5 μM
[10] = 4-HPR 3 μM + L-threo-sphinganine 1 μM
[11] = 4-HPR 6 μM + L-threo-sphinganine 2 μM
[12] = 4-HPR 9 μM + L-threo-sphinganine 3 μM

Question: Which “CI (Combination Index)” value [1, 9] does the source give for `CCCCCCCCCCCCCC[C@H](O)[C@@H](N)CO` [C17, (2S,3S)-2-amino-1,3-heptadecanediol] here?
Answer: Its value is 1.12.

Question: And the “Fa (fraction affected)” value [1, 9]?
Answer: The value was 0.549.

Question: And the “CI (Combination Index)” value [1, 10]?
Answer: Its value is 1.00.

Question: And the “Fa (fraction affected)” value [1, 10]?
Answer: Its value is 0.859.

Question: And the “CI (Combination Index)” value [1, 11]?
Answer: Its value is 0.43.

Question: And the “Fa (fraction affected)” value [1, 11]?
Answer: Its value is 0.993.

Question: What about the “CI (Combination Index)” value [1, 12] of the same molecule?
Answer: Its value is greater than 0.1.

Question: And the “Fa (fraction affected)” value [1, 12]?
Answer: The value was 1.000.

Question: What about the CI [2, 9] of the same molecule?
Answer: The CI was 0.7.

Question: What about the Fa [2, 9] of the same molecule?
Answer: The Fa was 0.214.

Question: And the CI [2, 10]?
Answer: Its CI is 0.9.

Question: And the Fa [2, 10]?
Answer: The Fa was 0.338.

Question: What about the CI [2, 11] of the same molecule?
Answer: The CI was 0.8.

Question: And the Fa [2, 11]?
Answer: Its Fa is 0.623.

Question: And the CI [2, 12]?
Answer: Its CI is 0.5.

Question: What about the Fa [2, 12] of the same molecule?
Answer: The Fa was 0.862.

Question: What about the “CI (Combination Index)” value [3, 9] of the same molecule?
Answer: Its value is 0.6.

Question: What about the “Fa (fraction affected)” value [3, 9] of the same molecule?
Answer: The value was 0.462.

Question: What about the “CI (Combination Index)” value [3, 10] of the same molecule?
Answer: The value was 0.4.

Question: What about the “Fa (fraction affected)” value [3, 10] of the same molecule?
Answer: The value was 0.874.

Question: What about the “CI (Combination Index)” value [3, 11] of the same molecule?
Answer: The value was 0.6.

Question: What about the “Fa (fraction affected)” value [3, 11] of the same molecule?
Answer: Its value is 0.928.

Question: What about the “CI (Combination Index)” value [3, 12] of the same molecule?
Answer: The value was 0.8.

Question: And the “Fa (fraction affected)” value [3, 12]?
Answer: Its value is 0.941.

Question: What about the “CI (Combination Index)” value [4, 9] of the same molecule?
Answer: The value was 1.7.

Question: And the “Fa (fraction affected)” value [4, 9]?
Answer: The value was 0.447.

Question: What about the “CI (Combination Index)” value [4, 10] of the same molecule?
Answer: Its value is 0.3.

Question: What about the “Fa (fraction affected)” value [4, 10] of the same molecule?
Answer: The value was 0.887.

Question: What about the “CI (Combination Index)” value [4, 11] of the same molecule?
Answer: Its value is 0.3.

Question: And the “Fa (fraction affected)” value [4, 11]?
Answer: The value was 0.944.

Question: And the “CI (Combination Index)” value [4, 12]?
Answer: The value was 0.2.

Question: And the “Fa (fraction affected)” value [4, 12]?
Answer: The value was 0.980.

Question: And the “CI (Combination Index)” value [5, 9]?
Answer: Its value is 1.7.

Question: What about the “Fa (fraction affected)” value [5, 9] of the same molecule?
Answer: Its value is 0.519.

Question: What about the “CI (Combination Index)” value [5, 10] of the same molecule?
Answer: Its value is 1.8.

Question: And the “Fa (fraction affected)” value [5, 10]?
Answer: Its value is 0.791.

Question: And the “CI (Combination Index)” value [5, 11]?
Answer: The value was 1.5.

Question: What about the “Fa (fraction affected)” value [5, 11] of the same molecule?
Answer: Its value is 0.951.

Question: And the “CI (Combination Index)” value [5, 12]?
Answer: Its value is 0.7.

Question: And the “Fa (fraction affected)” value [5, 12]?
Answer: Its value is 0.995.

Question: And the “CI (Combination Index)” value [6, 9]?
Answer: Its value is 0.9.

Question: What about the “Fa (fraction affected)” value [6, 9] of the same molecule?
Answer: The value was 0.211.

Question: And the “CI (Combination Index)” value [6, 10]?
Answer: The value was 1.2.

Question: And the “Fa (fraction affected)” value [6, 10]?
Answer: The value was 0.359.

Question: And the “CI (Combination Index)” value [6, 11]?
Answer: The value was 1.4.

Question: What about the “Fa (fraction affected)” value [6, 11] of the same molecule?
Answer: Its value is 0.664.

Question: What about the “CI (Combination Index)” value [6, 12] of the same molecule?
Answer: The value was 1.5.

Question: And the “Fa (fraction affected)” value [6, 12]?
Answer: Its value is 0.849.

Question: What about the “CI (Combination Index)” value [7, 9] of the same molecule?
Answer: The value was 1.6.

Question: What about the “Fa (fraction affected)” value [7, 9] of the same molecule?
Answer: Its value is 0.01.

Question: What about the “CI (Combination Index)” value [7, 10] of the same molecule?
Answer: Its value is 1.5.

Question: And the “Fa (fraction affected)” value [7, 10]?
Answer: The value was 0.010.

Question: What about the “CI (Combination Index)” value [7, 11] of the same molecule?
Answer: Its value is 1.0.

Question: And the “Fa (fraction affected)” value [7, 11]?
Answer: Its value is 0.010.

Question: And the “CI (Combination Index)” value [7, 12]?
Answer: The value was 1.1.

Question: And the “Fa (fraction affected)” value [7, 12]?
Answer: The value was 0.010.

Question: And the “CI (Combination Index)” value [8, 9]?
Answer: The value was 1.1.

Question: And the “Fa (fraction affected)” value [8, 9]?
Answer: Its value is 0.112.

Question: And the “CI (Combination Index)” value [8, 10]?
Answer: Its value is 0.8.

Question: And the “Fa (fraction affected)” value [8, 10]?
Answer: The value was 0.661.

Question: And the “CI (Combination Index)” value [8, 11]?
Answer: The value was 0.6.

Question: And the “Fa (fraction affected)” value [8, 11]?
Answer: Its value is 0.974.

Question: What about the “CI (Combination Index)” value [8, 12] of the same molecule?
Answer: The value was 0.5.

Question: And the “Fa (fraction affected)” value [8, 12]?
Answer: Its value is 0.993.
